Measurements: patent publication US9839642B2, “Beta-tetrazolyl-propionic acids as metallo-beta-lactamase inhibitors” (priority 2014, dated 2017)

Legend:
[1] = target: IMP-1 (Serratia marcescens, UniProt P52699); assay: Enzyme activity: determination of IC50, fluorescence assay with CCF2-FA substrate; format: biochemical; conditions: enzyme 2 pM, CCF2-FA 1.25 μM, 2 hours at 25° C.; read-out: IMP1 IC50
How it was run: (§1)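 Final enzyme levels differed by target: 1 pM NDM-1, 2 pM IMP-1, 30 pM VIM-1. Each was incubated 2 hours at 25° C with test compound and 1.25 μM CCF2-FA, and 460 nm fluorescence (405 nm excitation) was fitted by 4-parameter curve to obtain IC50.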

[2] = target: NDM-1 (Klebsiella pneumoniae, UniProt C7C422); assay: as above; format: biochemical; conditions: enzyme 1 pM, CCF2-FA 1.25 μM, 2 hours at 25° C.; read-out: NDM1 IC50
Chain of NDM-1 (C7C422 29-270, looked up, species assumed): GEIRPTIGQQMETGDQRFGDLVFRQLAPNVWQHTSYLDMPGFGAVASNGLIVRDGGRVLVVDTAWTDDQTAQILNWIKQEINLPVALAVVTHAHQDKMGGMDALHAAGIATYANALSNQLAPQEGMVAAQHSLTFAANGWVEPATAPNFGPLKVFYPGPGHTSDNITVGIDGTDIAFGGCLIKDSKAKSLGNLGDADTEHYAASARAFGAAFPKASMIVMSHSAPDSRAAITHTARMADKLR
How it was run: as §1

[3] = target: VIM-1 (Pseudomonas aeruginosa, UniProt A0A0F7KYQ8); assay: as above; format: biochemical; conditions: enzyme 30 pM, CCF2-FA 1.25 μM, 2 hours at 25° C.; read-out: VIM1 IC50
How it was run: as §1

[4] = system: Escherichia coli expressing NDM-1 (CLB30016); assay: Antibiotic potentiation activity: synergistic concentration (MITC95) with imipenem, growth by OD600; format: cell-based; conditions: 95% inhibition of bacterial growth, strain CLB30016
How it was run: (§2)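 Colonies from overnight agar plates (35 °C) were suspended in saline and diluted 1:100 into 1.1× CAMHB. Inhibitor (final 200 μM to 0.195 μM) was combined with imipenem at 1 or 4 μg/ml, incubated 22–24 h at 35 °C, and absorbance read; MITC95 is the lowest inhibitor concentration giving 95% growth inhibition.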

[5] = system: Klebsiella pneumoniae expressing VIM-1 (IHMA599644); assay: as above; format: cell-based; conditions: 95% inhibition of bacterial growth, strain IHMA599644
How it was run: as §2

[6] = system: Serratia marcescens expressing IMP-1 (CL5741); assay: as above; format: cell-based; conditions: 95% inhibition of bacterial growth, strain CL5741
How it was run: as §2

Chain of IMP-1 (P52699 19-246, looked up, species assumed): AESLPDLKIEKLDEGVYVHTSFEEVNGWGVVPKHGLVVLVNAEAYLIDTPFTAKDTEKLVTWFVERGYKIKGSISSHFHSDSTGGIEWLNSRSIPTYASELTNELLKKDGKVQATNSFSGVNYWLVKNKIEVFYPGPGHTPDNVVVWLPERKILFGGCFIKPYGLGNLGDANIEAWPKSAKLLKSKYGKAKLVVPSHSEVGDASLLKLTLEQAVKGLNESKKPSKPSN

Structure (SMILES)	IC50 [1]	IC50 [2]	IC50 [3]	NDM1 EC30016 MITC95 [4]	VIM1 KP599644 MITC95 [5]	IMP1 SM5741 MITC95 [6]
O=C(O)[C@@H](C1CCCC1)[C@H](Cc1ccc(C2CCNC2)cc1)c1nnn[nH]1 (stereo partly drawn) [Example 79, 3-(4-((2S,3S)-3-carboxy-3-cyclopentyl-2-(1H-tetrazol-5-yl)propyl)phenyl)pyrrolidin-1-ium]	0.19 µM	0.024 µM	0.0023 µM	3.1 µM	6.2 µM	4.7 µM
O=C(O)[C@@H](C1CCCC1)[C@H](Cc1ccc(C2CCNCC2)cc1)c1nnn[nH]1 [Example 80, 4-(4-((2S,3S)-3-carboxy-3-cyclopentyl-2-(1H-tetrazol-5-yl)propyl)phenyl)piperidine]	0.073 µM	0.017 µM	0.0022 µM	6.2 µM	9.4 µM	1.6 µM
CC[C@H](C)[C@H](C(=O)O)[C@H](Cc1ccc(C2CCNC2)cc1)c1nnn[nH]1 (stereo partly drawn) [Example 81, (2S,3S)-3-methyl-2-((1S)-2-(4-(pyrrolidin-3-yl)phenyl)-1-(1H-tetrazol-5-yl)ethyl)pentanoic acid]	0.065 µM	0.046 µM	0.0044 µM	2.3 µM	6.2 µM	2.3 µM
CCC[C@H](C(=O)O)[C@H](Cc1ccc(C#N)cn1)c1nnn[nH]1 [Example 84, (2S)-2-[(1S)-2-(5-cyanopyridin-2-yl)-1-(1H-tetrazol-5-yl)ethyl]pentanoic acid]	> 20 µM	1.2 µM	0.047 µM	18.8 µM	50 µM	>200 µM
CCC[C@H](C(=O)O)[C@H](Cc1ccc(C)nc1)c1nnn[nH]1 [Example 85, (2S)-2-[(1S)-2-(6-methylpyridin-3-yl)-1-(1H-tetrazol-5-yl)ethyl]pentanoic acid]	6.5 µM	0.25 µM	0.0062 µM	0.78 µM	18.8 µM	100 µM
CCC[C@H](C(=O)O)[C@H](Cc1ccc(S(=O)(=O)C2CC2)nc1)c1nnn[nH]1 [Example 86, (2S)-2-[(1S)-2-[6-(cyclopropylsulfonyl)pyridin-3-yl]-1-(1H-tetrazol-5-yl)ethyl]pentanoic acid]	3.3 µM	0.13 µM	0.011 µM	50 µM	100 µM	125 µM
CCC[C@H](C(=O)O)[C@H](Cc1cccnc1Cl)c1nnn[nH]1 [Example 87, (2S)-2-[(1S)-2-(2-chloropyridin-3-yl)-1-(1H-tetrazol-5-yl)ethyl]pentanoic acid]	6.6 µM	0.3 µM	0.0023 µM	12.5 µM	25 µM	>200 µM
CCC[C@H](C(=O)O)[C@H](Cc1ccncc1)c1nnn[nH]1 [Example 88, (2S)-2-[(1S)-2-pyridin-4-yl-1-(1H-tetrazol-5-yl)ethyl]pentanoic acid]	2 µM	0.18 µM	0.0056 µM	0.78 µM	6.2 µM	37.5 µM
CC(C)[C@H](C(=O)O)[C@H](CC1CCNCC1)c1nnn[nH]1 [Example 89, (2S,3S)-2-isopropyl-4-(piperidin-4-yl)-3-(1H-tetrazol-5-yl)butanoic acid]	> 20 µM	18 µM	2.1 µM	18.8 µM	37.5 µM	>200 µM
CC(=O)N1CCC(C[C@H](c2nnn[nH]2)[C@@H](C(=O)O)C(C)C)CC1 [Example 90, (2S,3S)-4-(1-acetylpiperidin-4-yl)-2-isopropyl-3-(1H-tetrazol-5-yl)butanoic acid]	14 µM	0.2 µM	0.31 µM	62 µM	200 µM	>200 µM
CC(C)[C@H](C(=O)O)[C@H](Cc1ccc(Br)nc1)c1nnn[nH]1 [Example 91, (2S,3S)-4-(6-bromopyridin-3-yl)-2-isopropyl-3-(1H-tetrazol-5-yl)butanoic acid]	2.2 µM	0.032 µM	0.0079 µM	7.8 µM	12.5 µM	50 µM
CC(C)[C@H](C(=O)O)[C@H](Cc1cccc(Br)n1)c1nnn[nH]1 [Example 92]	5.5 µM	0.11 µM	0.028 µM	9.4 µM	25 µM	100 µM
CCC[C@H](C(=O)O)[C@H](Cc1ccc(C(N)=O)cn1)c1nnn[nH]1 [Example 93, (S)-2-((S)-2-(5-carbamoylpyridin-2-yl)-1-(1H-tetrazol-5-yl)ethyl) pentanoic acid]	> 20 µM	0.58 µM	0.09 µM	6.2 µM	25 µM	>200 µM
CCC[C@H](C(=O)O)[C@H](Cc1cccc(C(=O)O)n1)c1nnn[nH]1 [Example 94, 6-((2S,3)-3-carboxy-2-(1H-tetrazol-5-yl)hexyl)picolinic acid]	> 20 µM	4.5 µM	2.9 µM	50 µM	200 µM	>200 µM
CCC[C@H](C(=O)O)[C@H](Cc1ccc(-c2ccc(CN)cc2)nc1)c1nnn[nH]1 [Example 96, (4-(5-((2S,3S)-3-carboxy-2-(1H-tetrazol-5-yl)hexyl)pyridin-2-yl)phenyl)methanaminium]	3.1 µM	0.28 µM	0.009 µM	6.2 µM	18.8 µM	37 µM
CCC[C@H](C(=O)O)[C@H](Cc1ccc(-c2ccc(-c3nn[nH]n3)cc2)nc1)c1nn[nH]n1 [Example 97, (S)-2-((S)-2-(6-(4-(2H-tetrazol-5-yl)phenyl)pyridin-3-yl)-1-(1H-tetrazol-5-yl)ethyl)pentanoic acid]	0.38 µM	0.0012 µM	0.0059 µM	100 µM	200 µM	31 µM
CC(C)C[C@H](C(=O)O)[C@H](Cc1ccc(-c2ccc3c(c2)CNC3)cn1)c1nnn[nH]1 [Example 99, (S)-2-((S)-2-(5-(isoindolin-5-yl)pyridin-2-yl)-1-(1H-tetrazol-5-yl)ethyl)-4-methylpentanoic acid]	3.9 µM	0.6 µM	0.35 µM	31 µM	100 µM	75 µM
CC(C)C[C@H](C(=O)O)[C@H](Cc1ccc(C2CCNC2)nc1)c1nnn[nH]1 (stereo partly drawn) [Example 100, (2S)-4-methyl-2-((1S)-2-(6-(pyrrolidin-3-yl)pyridin-3-yl)-1-(1H-tetrazol-5-yl)ethyl)pentanoic acid]	2.9 µM	0.28 µM	0.0049 µM	6.2 µM	12.5 µM	25 µM
CC(C)C[C@H](C(=O)O)[C@H](Cc1ccc(C2CCNCC2)cn1)c1nnn[nH]1 [Example 101, (S)-4-methyl-2-((S)-2-(5-(piperidin-4-yl)pyridin-2-yl)-1-(1H-tetrazol-5-yl)ethyl)pentanoic acid]	2 µM	0.13 µM	0.013 µM	1.6 µM	18.8 µM	18.8 µM
CC(C)C[C@H](C(=O)O)[C@H](Cc1ccc(C2CCNCC2)cc1)c1nnn[nH]1 [Example 102, (S)-4-methyl-2-((S)-2-(4-(piperidin-4-yl)phenyl)-1-(1H-tetrazol-5-yl)ethyl)pentanoic acid]	0.072 µM	0.04 µM	0.0053 µM	12.5 µM	37 µM	2.3 µM
CC(C)C[C@H](C(=O)O)[C@H](Cc1ccc(C2CCNCC2)nc1)c1nnn[nH]1 [Example 103, (S)-4-methyl-2-((S)-2-(6-(piperidin-4-yl)pyridin-3-yl)-1-(1H-tetrazol-5-yl)ethyl)pentanoic acid]	0.96 µM	0.15 µM	0.0034 µM	6.2 µM	18.8 µM	18.8 µM
CC(C)[C@H](C(=O)O)[C@H](Cc1ccc(C2CCNCC2)nc1)c1nnn[nH]1 [Example 104, (2S,3S)-2-isopropyl-4-(6-(piperidin-4-yl)pyridin-3-yl)-3-(1H-tetrazol-5-yl)butanoic acid]	7 µM	0.18 µM	0.014 µM	3.1 µM	18.8 µM	37 µM
